Measured values taken from patent US20150299182A1, “CRYSTALLINE FORMS OF (1S)-1-[5-(AMINO)-1,2,4-THIADIAZOL-3-YL]ETHANE-1,2-DIOL” (Array BioPharma Inc., priority 2012, published 2015).
“Also recorded” adds a separate entry of the source. Where a name gives a salt, the structure may show the parent alone.

Tests used:
[1] = Moisture balance / vapor sorption (hygroscopicity); assay type: physicochemical; conditions: for phase post vapor sorption experiment: based on XRPD results; for hygroscopicity: 5% to 95% relative humidity; for relative humidity by which the material fully re-hydrates: after drying to 5% relative humidity; for relative humidity above which the material is hygroscopic: vapor sorption curve; for sorbed water retained: upon drying back down to ambient relative humidity
Procedure: Moisture balance data was collected using a VTI SGA 100 or SGA CX symmetrical vapor sorption analyzer. Relative humidity was varied in increments or 5%, starting at 5% relative humidity thereby increasing to 95% relative humidity, and then undergoing a drying cycle back to 5% relative humidity. Equilibrium criteria was set at 0.01% weight change in 1 minute with a max equilibrium time of 180 minutes. Approximately 1-15 mg of sample was used.

[2] = 4 months
Procedure: (§1) Chemical and physical stability was initiated on these forms and samples were stored at 60° C., 40° C./75% RH, 25° C./60% RH, and 5° C.

[3] = Chemical and physical solid state stability on storage; conditions: for form change on storage: up to 4 months (phosphate salt up to 6 weeks)
Procedure: as §1

[4] = Storage at ambient conditions (form conversion); assay type: physicochemical; conditions: stored at ambient conditions
[5] = Exposure to 95% relative humidity chamber/jar, then XRPD; assay type: physicochemical
Procedure: The DSC curve indicates a broad endotherm around 150° C. (attributed to desolvation), and one sharp endotherm around 193° C. (attributed to a melt). The TG curve indicates a 5.0% weight loss up to 175° C.
The phosphate salt Form D material was generated from desolvating Form C, and a representative XRPD pattern is shown in FIG. 34. The sample appears to be crystalline with an irregular morphology. The DSC curve indicates a sharp endotherm around 193° C. (attributed to a melt). […] The material appears to retain this sorbed water upon drying down to 15% relative humidity; however, upon reaching 5% relative humidity the material losses all of its sorbed water and returns to dry weight.

[6] = Thermal stability characteristics; assay type: physicochemical
Procedure: The thermal properties of AMG151 samples were characterized using a DSC Q1000 or DSC Q 100, TA Instruments, differential scanning calorimetry, and a TGA Q 500, TA Instruments, thermogravimetric analyzer. Data analysis was performed utilizing Universal Analysis 2000, TA Instruments. Heating rates of 10° C./min were used over a variety of temperature ranges for differential scanning calorimetry and thermogravimetric analysis. Samples ranging from <1-5 mg were prepared in crimped or open aluminum pans for DSC analysis.

[7] = vapor sorption, as high as 95% relative humidity

| Compound | phase post vapor sorption experiment [1] | hygroscopicity ([1]; vapor sorption) | weight change [1, 7] | relative humidity above which the material is hygroscopic [1] | also measured |
| --- | --- | --- | --- | --- | --- |
| Cc1ncccc1Oc1cc(Sc2ccccn2)cnc1Nc1nc([C@H](O)CO)ns1 [Form F, (1S)-1-[5-({3-[(2-methylpyridin-3-yl)oxy]-5-(pyridin-2-ylsulfanyl)pyridin-2-yl}amino)-1,2,4-thiadiazol-3-yl]ethane-1,2-diol] | remained unchanged | non-hygroscopic |  |  | time found chemically stable [2]: up to 4 months; form change on storage ([3]; 40° C./75% RH): no form change; form change on storage ([3]; 60° C., listed as free base form F): no form change |
| Cc1ncccc1Oc1cc(Sc2ccccn2)cnc1Nc1nc([C@H](O)CO)ns1 [Amorphous AMG151, (1S)-1-[5-({3-[(2-methylpyridin-3-yl)oxy]-5-(pyridin-2-ylsulfanyl)pyridin-2-yl}amino)-1,2,4-thiadiazol-3-yl]ethane-1,2-diol] | remained unchanged | hygroscopic |  |  |  |
| Cc1ncccc1Oc1cc(Sc2ccccn2)cnc1Nc1nc([C@H](O)CO)ns1 [Form G, (1S)-1-[5-({3-[(2-methylpyridin-3-yl)oxy]-5-(pyridin-2-ylsulfanyl)pyridin-2-yl}amino)-1,2,4-thiadiazol-3-yl]ethane-1,2-diol] |  |  |  |  | form conversion on storage [4]: readily convert to Form F |
| Cc1ncccc1Oc1cc(Sc2ccccn2)cnc1Nc1nc([C@H](O)CO)ns1 [phosphate salt, (1S)-1-[5-({3-[(2-methylpyridin-3-yl)oxy]-5-(pyridin-2-ylsulfanyl)pyridin-2-yl}amino)-1,2,4-thiadiazol-3-yl]ethane-1,2-diol] |  |  |  |  | time found stable ([3]; 40° C./75% RH): up to 6 weeks; form change on storage ([3]; 40° C./75% RH): no form change; time found stable ([3]; 60° C.): up to 6 weeks; form change on storage ([3]; 60° C.): no form change |
| Cc1ncccc1Oc1cc(Sc2ccccn2)cnc1Nc1nc([C@H](O)CO)ns1 [fumarate co-crystal Form A, (1S)-1-[5-({3-[(2-methylpyridin-3-yl)oxy]-5-(pyridin-2-ylsulfanyl)pyridin-2-yl}amino)-1,2,4-thiadiazol-3-yl]ethane-1,2-diol] | remained unchanged | non-hygroscopic | 0.075% |  | form change on storage ([3]; 40° C./75% RH): no form change; form change on storage ([3]; 60° C.): no form change |
| Cc1ncccc1Oc1cc(Sc2ccccn2)cnc1Nc1nc([C@H](O)CO)ns1 [phosphate salt Form A, (1S)-1-[5-({3-[(2-methylpyridin-3-yl)oxy]-5-(pyridin-2-ylsulfanyl)pyridin-2-yl}amino)-1,2,4-thiadiazol-3-yl]ethane-1,2-diol] | remained unchanged | non-hygroscopic | 0.8% |  | relative humidity by which the material fully re-hydrates [1]: ≤ 55 % relative humidity |
| Cc1ncccc1Oc1cc(Sc2ccccn2)cnc1Nc1nc([C@H](O)CO)ns1 [HCl salt Form B, (1S)-1-[5-({3-[(2-methylpyridin-3-yl)oxy]-5-(pyridin-2-ylsulfanyl)pyridin-2-yl}amino)-1,2,4-thiadiazol-3-yl]ethane-1,2-diol] | converted to an amorphous phase | hygroscopic | 20% | above 75 % relative humidity |  |
| Cc1ncccc1Oc1cc(Sc2ccccn2)cnc1Nc1nc([C@H](O)CO)ns1 [Hydrate Form C, (1S)-1-[5-({3-[(2-methylpyridin-3-yl)oxy]-5-(pyridin-2-ylsulfanyl)pyridin-2-yl}amino)-1,2,4-thiadiazol-3-yl]ethane-1,2-diol] | remained unchanged | non hygroscopic; also recorded: non-hygroscopic | 0.25% |  | wt change ([1]; from 5% to 95% relative humidity): < 0.5%; form change on storage ([3]; 40° C./75% RH): no form change; time after which conversion to Form A was found ([3]; 60° C.): 2 weeks; form change on storage ([3]; 60° C., listed as free base mono-hydrate): converted to Form A |
| Cc1ncccc1Oc1cc(Sc2ccccn2)cnc1Nc1nc([C@H](O)CO)ns1 [phosphate salt Form B, (1S)-1-[5-({3-[(2-methylpyridin-3-yl)oxy]-5-(pyridin-2-ylsulfanyl)pyridin-2-yl}amino)-1,2,4-thiadiazol-3-yl]ethane-1,2-diol] | converted to Form A | slightly hygroscopic | 3.5% |  | stability of the phase as a function of relative humidity [1]: unstable as a function of ambient relative humidity; weight loss upon drying ([1]; upon drying down to 5% relative humidity): 8.5% |
| Cc1ncccc1Oc1cc(Sc2ccccn2)cnc1Nc1nc([C@H](O)CO)ns1 [phosphate salt Form C, (1S)-1-[5-({3-[(2-methylpyridin-3-yl)oxy]-5-(pyridin-2-ylsulfanyl)pyridin-2-yl}amino)-1,2,4-thiadiazol-3-yl]ethane-1,2-diol] |  |  |  |  | stability of the phase as a function of relative humidity [1]: unstable as a function of ambient relative humidity; form after exposure to 95% relative humidity [5]: converted to Form A |

Now from value to compound, other results behind:

| phase post vapor sorption experiment [1] | hygroscopicity ([1]; vapor sorption) | weight change [1, 7] | relative humidity above which the material is hygroscopic [1] | Compound | also measured |
| --- | --- | --- | --- | --- | --- |
| remained unchanged | hygroscopic |  | above 55 % relative humidity | Cc1ncccc1Oc1cc(Sc2ccccn2)cnc1Nc1nc([C@H](O)CO)ns1 [phosphate salt Form D, (1S)-1-[5-({3-[(2-methylpyridin-3-yl)oxy]-5-(pyridin-2-ylsulfanyl)pyridin-2-yl}amino)-1,2,4-thiadiazol-3-yl]ethane-1,2-diol] | stability of the phase as a function of relative humidity [1]: unstable as a function of ambient relative humidity; weight change ([1]; around 75% relative humidity (appears to convert to a mono-hydrate)): 3.0%; form after exposure to 95% relative humidity [5]: convert to Form E |
| converted to Form C | hygroscopic | 16.5% | above 65 % relative humidity | Cc1ncccc1Oc1cc(Sc2ccccn2)cnc1Nc1nc([C@H](O)CO)ns1 [MSA salt Form B, (1S)-1-[5-({3-[(2-methylpyridin-3-yl)oxy]-5-(pyridin-2-ylsulfanyl)pyridin-2-yl}amino)-1,2,4-thiadiazol-3-yl]ethane-1,2-diol] | stability of the phase as a function of relative humidity [1]: unstable as a function of relative humidity; sorbed water retained [1]: 2-3% |
| converted to an amorphous phase | hygroscopic | 9% | above 55 % relative humidity | Cc1ncccc1Oc1cc(Sc2ccccn2)cnc1Nc1nc([C@H](O)CO)ns1 [HCl salt Form A, (1S)-1-[5-({3-[(2-methylpyridin-3-yl)oxy]-5-(pyridin-2-ylsulfanyl)pyridin-2-yl}amino)-1,2,4-thiadiazol-3-yl]ethane-1,2-diol] |  |
| remained unchanged | hygroscopic | 18% | above 75 % relative humidity | Cc1ncccc1Oc1cc(Sc2ccccn2)cnc1Nc1nc([C@H](O)CO)ns1 [MSA salt Form C, (1S)-1-[5-({3-[(2-methylpyridin-3-yl)oxy]-5-(pyridin-2-ylsulfanyl)pyridin-2-yl}amino)-1,2,4-thiadiazol-3-yl]ethane-1,2-diol] | sorbed water retained [1]: 2-3% |
|  | slightly hygroscopic |  | Above 65 % relative humidity | Cc1ncccc1Oc1cc(Sc2ccccn2)cnc1Nc1nc([C@H](O)CO)ns1 [phosphate salt Form E, (1S)-1-[5-({3-[(2-methylpyridin-3-yl)oxy]-5-(pyridin-2-ylsulfanyl)pyridin-2-yl}amino)-1,2,4-thiadiazol-3-yl]ethane-1,2-diol] | stability of the phase as a function of relative humidity [1]: unstable as a function of ambient relative humidity; relative humidity by which the material fully re-hydrates [1]: ≤ 65 % relative humidity |
| remained unchanged | non-hygroscopic |  |  | Cc1ncccc1Oc1cc(Sc2ccccn2)cnc1Nc1nc([C@H](O)CO)ns1 [Form A, (1S)-1-[5-({3-[(2-methylpyridin-3-yl)oxy]-5-(pyridin-2-ylsulfanyl)pyridin-2-yl}amino)-1,2,4-thiadiazol-3-yl]ethane-1,2-diol] |  |
|  | hygroscopic |  |  | Cc1ncccc1Oc1cc(Sc2ccccn2)cnc1Nc1nc([C@H](O)CO)ns1 [mono-hydrochloride salt Form C, (1S)-1-[5-({3-[(2-methylpyridin-3-yl)oxy]-5-(pyridin-2-ylsulfanyl)pyridin-2-yl}amino)-1,2,4-thiadiazol-3-yl]ethane-1,2-diol] | thermal stability [6]: less preferred thermal stability characteristics |
